The source of these data is PubChem BioAssay AID743370.

Active and inactive are the calls of the source. How the calls were made is not given here.

The test deals with Acetylcholine receptor subunit alpha (Tetronarce californica) + Acetylcholine receptor subunit beta (Tetronarce californica) + Acetylcholine receptor subunit gamma (Tetronarce californica) + Acetylcholine receptor subunit delta (Tetronarce californica) (UniProt P02710+P02712+P02714+P02718). In words: muscle-type nicotinic receptor radioligand displacement – biochemical, Torpedo californica electric organ membranes, [125I]alpha-bungarotoxin (AID 743370). The settings on record: [125I]alpha-bungarotoxin displacement. In general terms: In a radioligand displacement assay an active substance lowers the binding of a labelled ligand.
Acetylcholine receptor subunit alpha (Tetronarce californica) + Acetylcholine receptor subunit beta (Tetronarce californica) + Acetylcholine receptor subunit gamma (Tetronarce californica) + Acetylcholine receptor subunit delta (Tetronarce californica), sequence (P02710 whole entry, looked up): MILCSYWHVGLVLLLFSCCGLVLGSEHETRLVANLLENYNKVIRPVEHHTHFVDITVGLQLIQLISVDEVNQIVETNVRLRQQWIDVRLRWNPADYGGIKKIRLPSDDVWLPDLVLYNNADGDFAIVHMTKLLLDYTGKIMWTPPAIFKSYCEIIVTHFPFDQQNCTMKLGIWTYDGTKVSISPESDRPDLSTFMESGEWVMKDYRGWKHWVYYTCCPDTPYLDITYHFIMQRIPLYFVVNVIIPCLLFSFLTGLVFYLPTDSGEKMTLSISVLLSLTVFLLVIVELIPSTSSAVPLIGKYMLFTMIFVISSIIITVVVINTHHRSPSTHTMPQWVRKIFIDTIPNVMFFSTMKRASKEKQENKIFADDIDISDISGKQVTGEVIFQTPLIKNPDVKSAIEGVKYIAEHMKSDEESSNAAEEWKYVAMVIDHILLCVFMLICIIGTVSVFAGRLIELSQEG
Acetylcholine receptor subunit alpha (Tetronarce californica) + Acetylcholine receptor subunit beta (Tetronarce californica) + Acetylcholine receptor subunit gamma (Tetronarce californica) + Acetylcholine receptor subunit delta (Tetronarce californica), sequence (P02712 whole entry, looked up): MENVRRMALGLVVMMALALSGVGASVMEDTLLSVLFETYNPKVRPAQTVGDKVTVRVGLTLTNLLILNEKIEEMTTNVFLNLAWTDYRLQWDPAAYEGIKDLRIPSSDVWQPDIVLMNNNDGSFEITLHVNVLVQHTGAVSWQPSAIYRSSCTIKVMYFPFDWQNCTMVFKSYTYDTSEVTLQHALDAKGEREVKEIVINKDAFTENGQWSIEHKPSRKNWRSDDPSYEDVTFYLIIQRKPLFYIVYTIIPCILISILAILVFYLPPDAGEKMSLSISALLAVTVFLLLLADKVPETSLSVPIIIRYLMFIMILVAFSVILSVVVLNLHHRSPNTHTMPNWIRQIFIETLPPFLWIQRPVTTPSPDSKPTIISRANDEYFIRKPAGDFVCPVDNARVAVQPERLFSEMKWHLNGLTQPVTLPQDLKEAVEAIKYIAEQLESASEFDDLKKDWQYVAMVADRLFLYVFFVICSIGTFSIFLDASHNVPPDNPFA
Acetylcholine receptor subunit alpha (Tetronarce californica) + Acetylcholine receptor subunit beta (Tetronarce californica) + Acetylcholine receptor subunit gamma (Tetronarce californica) + Acetylcholine receptor subunit delta (Tetronarce californica), sequence (P02714 whole entry, looked up): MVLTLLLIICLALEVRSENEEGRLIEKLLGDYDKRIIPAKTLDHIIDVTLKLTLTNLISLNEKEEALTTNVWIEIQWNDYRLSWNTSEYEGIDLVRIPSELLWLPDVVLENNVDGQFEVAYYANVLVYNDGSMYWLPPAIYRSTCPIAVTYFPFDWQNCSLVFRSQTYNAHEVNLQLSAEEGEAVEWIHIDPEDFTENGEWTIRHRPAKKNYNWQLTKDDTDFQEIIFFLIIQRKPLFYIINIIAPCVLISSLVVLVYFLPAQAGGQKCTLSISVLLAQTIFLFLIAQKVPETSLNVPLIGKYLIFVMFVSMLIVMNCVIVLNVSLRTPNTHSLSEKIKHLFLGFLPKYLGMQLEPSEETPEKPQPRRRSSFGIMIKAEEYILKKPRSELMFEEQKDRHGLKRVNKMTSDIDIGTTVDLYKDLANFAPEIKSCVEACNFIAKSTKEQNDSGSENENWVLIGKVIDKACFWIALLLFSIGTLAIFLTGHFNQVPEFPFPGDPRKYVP
Acetylcholine receptor subunit alpha (Tetronarce californica) + Acetylcholine receptor subunit beta (Tetronarce californica) + Acetylcholine receptor subunit gamma (Tetronarce californica) + Acetylcholine receptor subunit delta (Tetronarce californica), sequence (P02718 whole entry, looked up): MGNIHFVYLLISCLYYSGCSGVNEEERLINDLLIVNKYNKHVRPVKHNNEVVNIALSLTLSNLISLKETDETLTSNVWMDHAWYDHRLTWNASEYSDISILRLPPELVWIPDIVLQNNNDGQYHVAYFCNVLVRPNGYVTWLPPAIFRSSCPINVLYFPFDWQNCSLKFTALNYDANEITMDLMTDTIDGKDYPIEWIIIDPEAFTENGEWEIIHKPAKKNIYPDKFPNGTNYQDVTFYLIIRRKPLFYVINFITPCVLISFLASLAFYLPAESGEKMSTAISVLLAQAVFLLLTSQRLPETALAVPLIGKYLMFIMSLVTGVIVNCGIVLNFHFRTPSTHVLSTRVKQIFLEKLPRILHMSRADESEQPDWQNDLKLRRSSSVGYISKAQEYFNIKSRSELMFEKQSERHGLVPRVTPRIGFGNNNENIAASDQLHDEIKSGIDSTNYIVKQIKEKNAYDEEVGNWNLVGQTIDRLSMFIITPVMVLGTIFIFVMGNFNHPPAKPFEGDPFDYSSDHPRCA

The Ki is a measure of affinity in units of concentration, obtained from inhibition or displacement. For `COc1cc2c3c(ccnc3c1OC)NC=C2`, the inhibition constant (Ki) was 34 µM.

Take `CC/C=C/[C@@H]1CC[C@]2(C[C@H]3CC[C@H]4[C@@H](C(=O)OC(CC)CCCCCCCCCCCCC[C@@H]5O[C@](O)(CCN)[C@H](O)N(CCCN)C5=O)[C@@]5(CCC[C@H](C)O5)NC(=[N+]34)N2)O1` (stereo partly specified): the Ki is 8 µM.

Turning to `COn1c(Br)c2c3c(cccc31)[C@H]1C[C@@H](C)CN(C)[C@@H]1C2`, the Ki is 44 µM.

For `COc1cc(CCN)c2c(c1OC)SSSSS2`, the inhibition constant Ki was 10 µM.

Turning to `NC1=N/C(=C2/CCNC(=O)c3[nH]ccc32)C(=O)N1`, the Ki result was “inactive”.

Regarding `C[C@@H](N)[C@H](O)CCCCCCCC(=O)CCCCCCCCCCCCCC[C@@H](O[C@@H]1O[C@H](CO)[C@H](O)[C@H](O)[C@H]1O)[C@@H](C)N`, the inhibition constant (Ki) was 22 µM.
